Data on 4 compounds can be found in patent US10745387B2, “Crystalline form of (2S,3S,6S,7R,10R,E)-7,10-dihydroxy-3,7-dimethyl-12-oxo-2-((R,2E,4E)-6-(piridin-2-yl)hepta-2,4-dien-2-yl)oxacyclododec-4-en-6-yl-4-methylpiperazine-1-carboxylate and methods of use thereof” (EISAI R&D MANAGEMENT CO., LTD., priority 2015, dated 2020).

The subject of data set [1] is WiDr-R cells (SF3B1 R1074H mutation). Conditions: cited from earlier work.
Data set [2] in a line: Solid state stability study. Format: physicochemical. As for the experimental part:
Solid state stability studies were carried out on crystalline Form 1 under the following conditions: • Stored at 25° C. for 7 and 14 days • Stored at 40° C./75% RH (open) for 7 and 14 days • Stored at 60° C. for 7 and 14 days

Data set [3] concerns Panc 05.04 (mt SF3B1 cells). Briefly: Cell viability assay (CellTiter-Glo), Panc 05.04. The settings on record: 72 hr. Format: cell-based. As for the experimental part:
(§1) Cells (WiDr and Panc05.04 obtained from ATCC) were seeded in 96-well plates, with 2000 cells/1004/well, and incubated overnight. Spent media was removed, and fresh, media containing 9 different concentrations of compound (1004/well) were added, with DMSO concentration from compound stock solution adjusted to be 0.1%. Each compound treatment was done in duplicate or triplicate at each concentration.
(§2) Another plate with cells seeded was dedicated as a time zero (Tz) plate, to which was added 0.1% DMSO in media (1004/well) followed by CellTiter-Glo® reagent (Promega Corporation, Madison, Wis.) (504/well) for ATP measurement as a surrogate of cell viability. Average value from measurement of multiple wells of this plate is used as Tz.
(§3) Compound-treated plates were incubated for 72 hr at 37° C. Then, CellTiter-Glo® reagent (504/well) was added and ATP was measured. […]
(§4) Percentage growth inhibition/Percentage viability was calculated as: [(Ti−Tz)/(C−Tz)]×100 for concentrations for which Ti>/=Tz [(Ti−Tz)/Tz]×100 for concentrations for which Ti<Tz. *time zero (Tz), control growth (C), and test growth in the presence of compound (Ti) Percentage growth inhibition/Percentage viability are plotted versus compound concentration to determine Emax. […]

Data set [4] relates to WiDr cells (wildtype SF3B1). Description: Cell viability assay (CellTiter-Glo), WiDr. Format: cell-based. The settings on record: Homo sapiens, 72 hr, ATP (CellTiter-Glo). As for the experimental part:
as §1, §2, §3, §4

The subject of data set [5] is WiDr-R cells (SF3B1 R1074H mutation). Briefly: Cell viability assay, resistant WiDr-R counter-screen. Format: cell-based. The settings on record: 72 hr, ATP (CellTiter-Glo). (In general: Counterscreens check selectivity or assay interference.)
The subject of data set [6] is splicing of Ad2 pre-mRNA in HeLa nuclear extract. Description: In vitro splicing (IVS) biochemical assay. Conditions: 90 min, 30° C. As for the experimental part:
Biotin-labeled pre-mRNA of an adenovirus type 2 construct with a deletion of intervening sequence (Ad2) (Berg, M. G., et al. 2012 Mol. Cell Bio., 32(7):1271-83) was prepared by in vitro transcription. The Ad2 construct containing Exon 1 (41 nucleotides), Intron (231 nucleotides), and Exon 2 (72 nucleotides) was generated by gene synthesis and cloned into the EcoRI and XbaI sites of pGEM®-3Z vector (Promega) by Genewiz® (South Plainfield, N.J.). The plasmid was then linearized by XbaI digestion and purified. In vitro transcription and purification of transcribed pre-mRNA were performed using the MEGAscript® T7 transcription kit (Invitrogen™, Life Technologies™, Grand Island, N.Y.) and MEGAclear™ transcription clean-up kit (Invitrogen™, Life Technologies™, Grand Island, N.Y.), respectively, following the manufacturer's instructions. […]
In vitro splicing assay was performed at 30° C. in 254 reaction mixtures containing 95 μg HeLa nuclear extract (Promega Corporation, Madison, Wis.), 47 nM Ad2 pre-mRNA, 25U RNasin RNase inhibitor (Promega Corporation, Madison, Wis.), 1×SP buffer (0.5 mM ATP, 20 mM creatine phosphate, 1.6 mM MgCl2), and compounds in DMSO (with 1% final concentration of DMSO). […] The amount of spliced RNA was quantified by measuring the band fluorescent intensity using LI-COR Image Studio software. […]

Regarding `CCC(O)C(C)C1OC1CC(C)(O)/C=C/C=C(\C)C1OC(=O)CC(O)CCC(C)(O)C(OC(=O)N2CCN(C3CCCCCC3)CC2)/C=C/C1C` (stereo not drawn) [Compound E7107, (8E,12E,14E)-7-((4-cycloheptylpiperazin-1-yl)carbonyl)oxy-3,6,16,21-tetrahydroxy-6,10,12,16,20-pentamethyl-18,19-epoxytricosa-8,12,14-trien-11-olide], in data set [1], the “Growth inhibition in WiDr-R cells (resistance)” value is reported as “resistant”.

On to `C/C(=C\C=C\[C@@H](C)c1ccccn1)[C@H]1OC(=O)C[C@H](O)CC[C@@](C)(O)[C@@H](OC(=O)N2CCN(C)CC2)/C=C/[C@@H]1C` [crystalline Form 1, (2S,3S,6S,7R,10R,E)-7,10-dihydroxy-3,7-dimethyl-12-oxo-2-((R,2E,4E)-6-(pyridin-2-yl)hepta-2,4-dien-2-yl)oxacyclododec-4-en-6-yl 4-methylpiperazine-1-carboxylate], for which, in data set [2] (25° C., 40° C./75% RH (open), 60° C., each for 7 and 14 days), the “Degradation on storage (solid state stability)” value was “No significant degradation”. Moreover, in data set [2] (40° C./75% RH (open) for 14 days), the “Change in crystallinity (XRPD and TGA-DSC)” value is given as “no change in crystallinity”.

The GI50 is the concentration that inhibits growth by half. The term IC50 denotes the point on the concentration scale where inhibition reaches its midpoint. Read a low IC50 as greater potency in that assay. `C/C(=C\C=C\[C@@H](C)c1ccccn1)[C@H]1OC(=O)C[C@H](O)CC[C@@](C)(O)[C@@H](OC(=O)N2CCN(C)CC2)/C=C/[C@@H]1C` [Compound 1, (2S,3S,6S,7R,10R,E)-7,10-dihydroxy-3,7-dimethyl-12-oxo-2-((R,2E,4E)-6-(pyridin-2-yl)hepta-2,4-dien-2-yl)oxacyclododec-4-en-6-yl 4-methylpiperazine-1-carboxylate]: the GI50 was 32.7 nM in data set [3] (ATP (CellTiter-Glo)), 31.8 nM in data set [4] and above 1000 nM in data set [5]. Further, the Emax in data set [3] (negative value indicates cellular lethality) is -66.1%. The compound further gave an IC50 in data set [6] of 1330 nM.

Consider pladienolide B, for which the “Growth inhibition in WiDr-R cells (resistance)” value in data set [1] was “resistant”.
